Measured values reported in patent publication US11530211B2, “Dihydroindolizinone derivative” (DAIICHI SANKYO COMPANY, LIMITED, priority 2018, dated 2022).
Where two headings read alike, the source gives them in different places.

How the values were obtained:
[1] = tested on: human iPS cell Toe strain; test: Effect to promote differentiation from human iPS cells into insulin-producing cells (insulin-positive cell rate, imaging); format: cell-based; set-up: key to Activity: +: the sum of activity values at the two concentrations was obviously higher than the control untreated with compounds while being lower than the positive control; ++: the sum was equivalent to the positive control; +++: the sum was higher than the positive control; settings: for Activity: sum of activity values at 2 μM and 10 μM compared with positive control (compound of Example 1), added at stages 3 to 5; for EC50: efficacy of 10 μM of the compound of Example 1 taken as 100%, 0.01 to 10 μM, read-out: E050
Text: The evaluation system of the effect (efficacy) to promote differentiation from human iPS cells into insulin-producing cells was constructed with reference to known information (Non Patent Document 6). Further, the medium used in each differentiation stage was also produced with reference to known information (differentiation media A to E (Media A to E) described in Non Patent Document 6 were used respectively for stages 1 to 5; however, a medium free from GLP-1 receptor agonist and nicotinamide was used as differentiation medium E).
In order to evaluate the efficacy of each compound, the compound of Example 1 was used as a positive control, and dimethylsulfoxide (DMSO) (SIGMA, D2650) with a final concentration of 0.1% was used as a control untreated with compounds. […] In the following evaluation, the compound solutions were added to the medium to 0.1% that is the final concentration of DMSO. First, induction from human iPS cell Toe strain (National Institutes of Biomedical Innovation, Health and Nutrition) into cells on day 7 of culture (2 days after replacement with differentiation medium C (cells in the differentiation process from FOXA2-positive primitive gut tube cells into PDX1-positive pancreatic progenitor cells)) was performed according to the method of Non Patent Document 6 for “inducing differentiation from human iPS cells into pancreatic β cells”, and the cells were collected and thereafter stored in liquid nitrogen using Bambanker (NIPPON Genetics Co, Ltd.) at 1×10^7 cells/mL/tube, to produce a cell stock for evaluation. The cell stock was dissolved at the start of the evaluation of efficacy, suspended in differentiation medium C for stage 3 (DMEM high glucose (Life technologies, 11965092), 0.25 μM SANT-1, 0.1 μM LDN193189 (Stemgent, 04-0074), 10 μM SB431542, 2 μM Retinoic acid (Stemgent, 04-0021), 1% B27 serum free supplement (Life technologies, 17504044) and thereafter seeded in a 96-well plate (Corning, #3340) coated with Synthemax II (Corning, #5656) at 1×10^5 cells/well. After culturing for 2 days, the medium was removed, and new differentiation medium C for stage 3 with the compound or only DMSO added was added thereto at 100 μL/well. After culturing for 2 days, the medium was removed, and new differentiation medium D for stage 4 (DMEM high glucose, 0.1 μM LDN193189, 5 μM TGF-β type I receptor kinase inhibitor II (Calbiochem 616452), 0.3 μM (−)-indolactam V (Enzo life science ALX-420-011-C300), 1% B27 serum free supplement) with the compound or only DMSO added was added thereto at 100 μL/well. After culturing for 2 to 3 days, the medium was removed, and new differentiation medium E for stage 5 (GLP-1 receptor agonist and nicotinamide-free; Knockout […] (Life technologies, 12660012), 1% B27 serum free supplement) with the compound or only DMSO added was added thereto at 200 μL/well. After culturing for 2 days, the medium was removed, and a 4% paraformaldehyde phosphorus acid buffer (Wako, 163-20145) was added thereto at 150 μL/well and left standing for 30 to 60 minutes at room temperature to fix the cells. A phosphorus acid buffer (PBS) (Takara, T9181) containing 1% Triton X-100 (Sigma, T8787) was left standing for 15 minutes at room temperature, then washed with PBS-T (Takara, T9183), and was blocked for 1 hour using 20% Blocking One (Nacalai tesque, Tokyo, Japan) diluted with PBS-T at room temperature. After the removal of Blocking One, guinea pig anti-insulin antibody (Abcam, ab7842) diluted 200-fold with 20% Blocking One was added thereto at 50 μL/well, followed by standing at 4° C. overnight. After washing with PBS-T 3 times, […]-labeled anti-guinea pig antibody (Life Technologies, A11075) diluted 1000-fold with 20% Blocking One and 6-diamidino-2-phenylindole (DAPI) (Roche Diagnostics, Basel, Switzerland) were added thereto, followed by standing at room temperature for 2 hours. After washing with PBS-T 3 times, the fluorescence images of the cells were analyzed. […]

UCHL1 = biological target: T1, UCHL1 (Homo sapiens, UniProt P09936); test: Evaluation of UCHL1 activation (ubiquitin-AMC hydrolysis); settings: test compound 10 μM; control (DMSO) = 100; fluorescence increment 10 minutes to 2 hours; n=3
T1 sequence (P09936 1-223): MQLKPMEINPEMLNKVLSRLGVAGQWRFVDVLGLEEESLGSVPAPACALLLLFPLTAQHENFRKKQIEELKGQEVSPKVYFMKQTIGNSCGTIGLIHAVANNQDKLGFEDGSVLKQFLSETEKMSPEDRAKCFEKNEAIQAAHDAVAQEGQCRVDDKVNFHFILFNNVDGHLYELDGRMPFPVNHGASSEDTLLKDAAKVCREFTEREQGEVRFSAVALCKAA
Experimental: Using dimethylsulfoxide (DMSO) (SIGMA, D2650) as a control untreated with compounds (which will be hereinafter referred to as control), each test compound was dissolved in DMSO in use. DMSO and the test compound solutions were each added to the enzymatic reaction solution to a final concentration of 2%. […] The amount of fluorescence (excitation wavelength: 350 nm and fluorescence wavelength: 440 nm) of AMC generated due to hydrolysis of the fluorescence-labeled substrate was measured 10 minutes and 2 hours after the start of the enzymatic reaction, to calculate the increment in amount of fluorescence by subtraction between the two.
The amount of fluorescence of AMC was measured using Envision (PerkinElmer). The increment in amount of fluorescence of the control was taken as 100%, and the increment in amount of fluorescence of each test compound was expressed as a percentage (%) based on this, to obtain an enzymatic activity value. Enzymatic activity value (%)={(Amount of fluorescence increment of each test compound)/(Amount of fluorescence increment of control)}×100

ZDF disease rats = test: Glucose tolerance test after 4 weeks repeated oral administration in ZDF rats; format: in vivo, rat; settings: 10 mg/kg orally once a day for 4 weeks; Day 28; 60 minutes after 2 g/kg glucose loading minus before loading; male ZDF disease rats
Experimental: After repeated oral administration of the compound according to Example 9 to 8 week-old male ZDF disease rats (CHARLES RIVER LABORATORIES JAPAN, INC.) for 4 weeks (from Day 1 to 28), a glucose tolerance test was conducted on Day 28 to investigate the effect to improve the pathological conditions of diabetes. On Day 0, the ZDF disease rats were subjected to measurement of blood sugar, insulin value, and body weight, as needed, and were grouped by multivariable block assignment. The experiments were conducted in a total of 3 groups of 4 male ZDF Lean rats (lean group), a group of 8 ZDF disease rats with a 0.5 w/v % methylcellulose 400 solution (which will be hereinafter referred to as 0.5% MC) administered (vehicle group), and a group of 8 ZDF disease rats with the compound of Example 9 administered (Example 9 group). The compound according to Example 9 was suspended in 0.5% MC and was orally administered 10 mg/kg once a day.
The glucose tolerance test was conducted as follows. […] Before the glucose loading and 60 minutes after the glucose loading, blood was collected from the tail vein, and the blood sugar was measured.
The blood sugar was measured using glucose C2-Test Wako (Cat No. 437-90902 for 700 times, available from Wako Pure Chemical Industries, Ltd).

Row | Structure (SMILES) | EC50 ([1]; Homo sapiens) [nM] | also measured
1 | Cc1nc(NC(=O)C2CCC(=O)c3cccn32)sc1-c1ccc(OC(C)(C)C)cc1 (single isomer, unassigned) [Example 101a] | – | Activity [1]: +
2 | CC1(C(=O)Nc2ncc(-c3ccc(OC(F)(F)F)cc3)s2)CCC(=O)c2cccn21 (centres unmarked) [Example 65] | 1800 | –
3 | Cc1ccc(-c2cnc(NC(=O)C3CCC(=O)c4cccn43)s2)cc1 (centres unmarked) [Example 18] | – | Activity [1]: ++
4 | O=C1CCC(C(=O)Nc2ncc(-c3ccc(OCc4ccccc4)c(F)c3)s2)n2cccc21 (centres unmarked) [Example 43, N-[5-(4-Benzyloxy-3-fluorophenyl)thiazol-2-yl]-8-oxo-6,7-dihydro-5H-indolizine-5-carboxamide] | 190 | –
5 | O=C1CCC(C(=O)Nc2nc3ccc(-c4ccc(Cl)cc4)cc3s2)n2cccc21 (centres unmarked) [Example 93, N-[6-(4-Chlorophenyl)-1,3-benzothiazol-2-yl]-8-oxo-6,7-dihydro-5H-indolizine-5-carboxamide] | 290 | –
6 | O=C1CCC(C(=O)Nc2ncc(-c3ccc(OC(F)(F)F)cc3)s2)n2cccc21 (single isomer, unassigned) [Example 10b] | – | EC50 [1]: 220 nM; Activity [1]: +++
7 | CC(C)(C)Oc1ccc(-c2cnc(NC(=O)C3CCC(=O)c4cccn43)s2)cc1 (centres unmarked) [Example 11, N-[5-(4-Tert-butoxyphenyl)thiazol-2-yl]-8-oxo-6,7-dihydro-5H-indolizine-5-carboxamide] | 490 | –
8 | O=C1CC(C(=O)Nc2ncc(-c3ccc(OC(F)(F)F)cc3)s2)n2cccc21 (centres unmarked) [Example 58] | 1600 | –
9 | Cc1nc(NC(=O)C2CCC(=O)c3cccn32)sc1-c1ccc(OC(C)(C)C)cc1 (single isomer, unassigned) [Example 101b] | 90 | Activity [1]: +++; Enzyme activity (c/o) (UCHL1): 318 c/o
10 | Cc1nc(NC(=O)C2CCC(=O)c3cccn32)sc1-c1ccc(OC(C)(C)C)cc1 (centres unmarked) [Example 35, N-[5-(4-tert-Butoxyphenyl)-4-methylthiazol-2-yl]-8-oxo-6,7-dihydro-5H-indolizine-5-carboxamide] | 250 | –
11 | O=C1CCC(C(=O)Nc2ncc(-c3ccc(C(F)(F)F)cc3)s2)n2cccc21 (centres unmarked) [Example 21, 8-Oxo-N-[5-[4-(trifluoromethyl)phenyl]thiazol-2-yl]-6,7-dihydro-5H-indolizine-5-carboxamide] | 450 | –
12 | O=C1CCC(C(=O)Nc2nc3ccc(-c4ccc(OC(F)(F)F)cc4)cc3s2)n2cccc21 (centres unmarked) [Example 59, 8-Oxo-N-[6-[4-(trifluoromethoxy)phenyl]-1,3-benzothiazol-2-yl]-6,7-dihydro-5H-indolizine-5-carboxamide] | 540 | –
13 | O=C1CCC(C(=O)Nc2ncc(-c3ccc(OC(F)(F)F)cc3)s2)n2cccc21 (centres unmarked) [Example 9, 8-Oxo-N-[5-[4-(trifluoromethoxy)phenyl]thiazol-2-yl]-6,7-dihydro-5H-indolizine-5-carboxamide] | 230 | Enzyme activity (c/o) (UCHL1): 270 c/o; Δ Plasma glucose (ZDF disease rats): -275.8 mg/dL
14 | O=C1CCC(C(=O)Nc2ncc(-c3ccc4c(c3)OC(F)(F)O4)s2)n2cccc21 (centres unmarked) [Example 40, N-[5-(2,2-Difluoro-1,3-benzodioxol-5-yl)thiazol-2-yl]-8-oxo-6,7-dihydro-5H-indolizine-5-carboxamide] | 820 | –
15 | O=C1CCC(C(=O)Nc2ncc(-c3ccc4ccccc4c3)s2)n2cccc21 (centres unmarked) [Example 24, N-[5-(2-Naphthyl)thiazol-2-yl]-8-oxo-6,7-dihydro-5H-indolizine-5-carboxamide] | – | Activity [1]: +
16 | O=C1CCC(C(=O)Nc2ncc(-c3ccc(OC(F)(F)F)cc3)s2)n2cccc21 (single isomer, unassigned) [Example 10a] | – | EC50 [1]: 1200 nM; Activity [1]: +++
17 | O=C1CCC(C(=O)Nc2ncc(-c3ccc(OC(F)(F)F)c(Cl)c3)s2)n2cccc21 (centres unmarked) [Example 30, N-[5-[3-Chloro-4-(trifluoromethoxy)phenyl]thiazol-2-yl]-8-oxo-6,7-dihydro-5H-indolizine-5-carboxamide] | 1000 | –
18 | Cc1nc(NC(=O)C2CCC(=O)c3cccn32)sc1-c1ccc(OC(F)(F)F)cc1 (centres unmarked) [Example 36, N-[4-Methyl-5-[4-(trifluoromethoxy)phenyl]thiazol-2-yl]-8-oxo-6,7-dihydro-5H-indolizine-5-carboxamide] | 310 | –
19 | O=C1CCC(C(=O)Nc2ncc(-c3ccc(Oc4ccccc4)cc3)s2)n2cccc21 (centres unmarked) [Example 46, 8-Oxo-N-[5-(4-phenoxyphenyl)thiazol-2-yl]-6,7-dihydro-5H-indolizine-5-carboxamide] | 540 | –
20 | O=C1CCC(C(=O)Nc2ncc(-c3ccccc3)s2)n2cccc21 (centres unmarked) [Example 1, 8-Oxo-N-(5-phenylthiazol-2-yl)-6,7-dihydro-5H-indolizine-5-carboxamide] | 5800 | –
21 | Cc1nc(NC(=O)C2CCC(=O)c3cccn32)sc1-c1ccc(OCC(F)(F)F)cc1 (centres unmarked) [Example 88, N-[4-Methyl-5-[4-(2,2,2-trifluoroethoxy)phenyl]thiazol-2-yl]-8-oxo-6,7-dihydro-5H-indolizine-5-carboxamide] | 240 | Enzyme activity (c/o) (UCHL1): 422 c/o
22 | O=C1CCC(C(=O)Nc2ncc(-c3ccc(OCC(F)(F)F)cc3)s2)n2cccc21 (centres unmarked) [Example 45, 8-Oxo-N-[5-[4-(2,2,2-trifluoroethoxy)phenyl]thiazol-2-yl]-6,7-dihydro-5H-indolizine-5-carboxamide] | 130 | –
